Where two headings read alike, the source gives them in different places.
Key:
[1] = Mouse oral cassette pharmacokinetics; type: in vivo, male CD-1 mice
Description: Mouse Oral Cassette Pharmacokinetics
Test compounds (1-3 compounds per cassette) were formulated in solution formulations (10 w/v % Captisol in 50 mM Citrate buffer) and administered orally at 30 mg-eq./kg each compound to a group of four male CD-1 mice. The test articles were administrated by oral gavage at a dose volume of 10 mL-eq/kg.
Blood samples were collected at 0.5, 1, 3, 6, 8, and 24 hours post dose into K2EDTA tubes and stored on wet ice until processed. Whole blood was processed to plasma by centrifugation (3500 rpm for 10 minutes at 5° C.) within 30 minutes of collection. Plasma samples were placed in Micronic 96 well tubes and stored at −80° C. until transferred. Plasma concentration of the test compounds was determined by LC-MS/MS. Pharmacokinetic parameters were estimated using non-compartment model analysis. The maximum observed concentration (Cmax) and area under the curve from time of dosing to last measured concentration (AUClast) were calculated and reported.

GDP-loaded KRAS G12D = GDP-loaded KRAS G12D (Homo sapiens, UniProt P01116, G12D); assay: KRAS G12D (GDP) biochemical assay, TR-FRET probe displacement; type: binding; conditions: 0.5 nM enzyme, 30 min pre-incubation, 2 h incubation, TR-FRET ratio; read-out: G12D IC50
Description: Example A. KRAS G12D (GDP) Biochemical Assay
Compounds were tested for binding to GDP-loaded KRAS G12D in a 384-well assay format using a TR-FRET probe displacement assay in buffer consisting of 50 mM Hepes (pH 7.4), 150 mM NaCl, 5 mM MgCl2 and 0.005% Tween-20. […] Compounds were serially diluted (1:3) in DMSO. The LabCyte ECHO Acoustic dispenser system was used to pre-spot the assay plates (384-well Non-Binding Surface plates, Corning, Catalog #3824) with 50 nL of compound. The compounds were pre-incubated with 5 μL of 2× final enzyme concentration for 30 minutes before adding 5 μL of 2× final concentration of Eu-streptavidin and TR-FRET probe (10 μL final reaction volume). The plates were incubated at room temperature for 2 hours before measuring TR-FRET ratio on the Envision plate reader. IC50 values were defined as the compound concentration that causes a 50% decrease in TR-FRET ratio and were calculated using a sigmoidal dose-response model to generate curve fits.

GP2D (KRAS G12D) cells = assay: 2D cell viability assay (CellTiter-Glo); type: cell-based; conditions: GP2D cells, 4 days, CellTiter-Glo luminescence, read-out: G12D 2D EC50
In short: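 GP2D (KRAS G12D) cells, 1000/well in RPMI + 10% FBS, were plated onto compound (1:3 DMSO series) and grown 4 days at 37 °C, 5% CO2 in 2D. CellTiter-Glo luminescence was read; EC50 is the concentration giving 50% signal decrease, from sigmoidal fit.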

[2] = oral gavage, 30 mg-eq./kg each compound, cassette, plasma, AUClast of parent
[3] = male, CD-1, mouse, in vivo, po, 30 mg/kg

Question: Which “Mouse Parent AUC” value [1, 2] does the source give for “4-(((1S,4R,11R,14aR)-11-(8-ethynyl-7-fluoro-3-hydroxynaphthalen-1-yl)-10,12-difluoro-8-(((2R,7aS)-2-fluorotetrahydro-1H-pyrrolizin-7a(5H)-yl)methoxy)-1,2,3,4,5,13,14,14a-octahydro-1,4-epiminoazepino[1′,2′:1,71azepino[2,3,4-de]quinazolin-15-yl)methyl)-5-methyl-1,3-dioxol-2-one [Example 37]” here?
Answer: 0.13 µM·h

Question: And the IC50 (GDP-loaded KRAS G12D)?
Answer: 1 nM

Question: And the EC50 (GP2D (KRAS G12D) cells)?
Answer: 0.23 nM

Question: Which results are given for “5-ethynyl-6-fluoro-4-((7R,8S,8aS,9S,12R)-4-fluoro-2-(((2R,7aS)-2-fluorotetrahydro-1H-pyrrolizin-7a(5H)-yl)methoxy)-7,8-dimethyl-14-((5-methyl-2-oxo-1,3-dioxol-4-yl)methyl)-7,8,8a,9,10,11,12,13-octahydro-1,3,6,13a,14-pentaaza-9,12-methanonaphtho[1,8-ab]heptalen-5-yl)naphthalen-2-yl isobutyrate [Example 31]”?
Answer: Mouse Parent AUC [1, 2]: 0.99 µM·h; EC50 (GP2D (KRAS G12D) cells): 0.2 nM

Question: Which results are given for `Cc1cc(N)nc(-c2c(Cl)c3c4c(nc(OC[C@@]56CCCN5C[C@H](F)C6)nc4c2F)N2C[C@H]4CC[C@@H]([C@H]2CC3)N4Cc2oc(=O)oc2C)c1C(F)(F)F` (atropisomer, axis not shown; (aR)) [Example 3, 4-(((1R,4S,14aR)-11-((R)-6-amino-4-methyl-3-(trifluoromethyl)pyridin-2-yl)-12-chloro-10-fluoro-8-(((2R,7aS)-2-fluorotetrahydro-1H-pyrrolizin-7a(5H)-yl)methoxy)-1,2,3,4,5,13,14,14a-octahydro-1,4-epiminoazepino[1′,2′:1,7]azepino[2,3,4-de]quinazolin-15-yl)methyl)-5-methyl-1,3-dioxol-2-one]?
Answer: Mouse Parent AUC [1, 3]: 5.7 µM·h; IC50 (GDP-loaded KRAS G12D): 4.7 nM; EC50 (GP2D (KRAS G12D) cells; 96 h): 0.92 nM

Question: Which “Mouse Parent AUC” value [1, 3] does the source give for `C#Cc1c(F)ccc2cc(O)cc(-c3nc4c5c(nc(OC[C@@]67CCCN6C[C@H](F)C7)nc5c3F)N3C[C@H]5CC[C@H](N5)[C@@H]3[C@@H](C)C4)c12` [Comp. Ex. 64, 5-ethynyl-6-fluoro-4-((5S,5aS,6S,9R)-1-fluoro-12-(((2R,7aS)-2-fluorotetrahydro-1H-pyrrolizin-7a(5H)-yl)methoxy)-5-methyl-4,5,5a,6,7,8,9,10-octahydro-3,10a,11,13,14-pentaaza-6,9-methanonaphtho[1,8-ab]heptalen-2-yl)naphthalen-2-ol, reference compound] here?
Answer: 0.83 µM·h

Question: Which “Mouse Parent AUC” value [1, 3] does the source give for `C#Cc1c(F)ccc2cc(O)cc(-c3nc4c5c(nc(OC[C@@]67CCCN6C[C@H](F)C7)nc5c3F)N3C[C@H]5CC[C@H](N5)[C@@H]3[C@@H](C)[C@H]4C)c12` [Comp. Ex. 87, reference compound] here?
Answer: 0.9 µM·h

Question: Which “Mouse Parent AUC” value [1, 3] does the source give for `C#Cc1c(F)ccc2cccc(-c3nc4c5c(nc(OC[C@@]67CCCN6C[C@H](F)C7)nc5c3F)N3C[C@H]5CC[C@@H]([C@H]3CCC4)N5Cc3oc(=O)oc3C)c12` [Example 1, 4-(((6aR,7S,10R)-2-(8-ethynyl-7-fluoronaphthalen-1-yl)-1-fluoro-13-(((2R,7aS)-2-fluorotetrahydro-1H-pyrrolizin-7a(5H)-yl)methoxy)-5,6,6a,7,8,9,10,11-octahydro-4H-3,11a,12,14,15-pentaaza-7,10-methanocyclohepta[4,5]cycloocta[1,2,3-de]naphthalen-15-yl)methyl)-5-methyl-1,3-dioxol-2-one] here?
Answer: 3.6 µM·h

Question: And the IC50 (GDP-loaded KRAS G12D)?
Answer: 2.5 nM

Question: And the EC50 (GP2D (KRAS G12D) cells; 96 h)?
Answer: 5.8 nM

Question: Which “Mouse Parent AUC” value [1, 3] does the source give for `C#Cc1c(F)ccc2cc(O)cc(-c3nc4c5c(nc(OC[C@@]67CCCN6C[C@H](F)C7)nc5c3F)N3C[C@H]5CC[C@@H]([C@H]3CCC4)N5Cc3oc(=O)oc3C)c12` [Example 8, 4-(((6aR,7S,10R)-2-(8-ethynyl-7-fluoro-3-hydroxynaphthalen-1-yl)-1-fluoro-13-(((2R,7aS)-2-fluorotetrahydro-1H-pyrrolizin-7a(5H)-yl)methoxy)-5,6,6a,7,8,9,10,11-octahydro-4H-3,11a,12,14,15-pentaaza-7,10-methanocyclohepta[4,5]cycloocta[1,2,3-de]naphthalen-15-yl)methyl)-5-methyl-1,3-dioxol-2-one] here?
Answer: 1.1 µM·h

Question: What about the IC50 (GDP-loaded KRAS G12D) of the same compound?
Answer: 4.8 nM

Question: And the EC50 (GP2D (KRAS G12D) cells; 96 h)?
Answer: 0.49 nM

Question: Which results are given for `C#Cc1c(F)ccc2cc(O)cc(-c3nc4c5c(nc(OC[C@@]67CCCN6C[C@H](F)C7)nc5c3F)N3C[C@H]5CC[C@@H]([C@H]3CCC4)N5Cc3oc(=O)oc3C(C)(C)C)c12` [Example 9, 4-(tert-butyl)-5-(((6aR,7S,10R)-2-(8-ethynyl-7-fluoro-3-hydroxynaphthalen-1-yl)-1-fluoro-13-(((2R,7aS)-2-fluorotetrahydro-1H-pyrrolizin-7a(5H)-yl)methoxy)-5,6,6a,7,8,9,10,11-octahydro-4H-3,11a,12,14,15-pentaaza-7,10-methanocyclohepta[4,5]cycloocta[1,2,3-de]naphthalen-15-yl)methyl)-1,3-dioxol-2-one]?
Answer: Mouse Parent AUC [1, 3]: 0.16 µM·h; IC50 (GDP-loaded KRAS G12D): 12 nM; EC50 (GP2D (KRAS G12D) cells; 96 h): 1.9 nM

Question: For `C#Cc1c(F)ccc2cc(O)cc(-c3nc4c5c(nc(OC[C@@]67CCCN6C[C@H](F)C7)nc5c3F)N3C[C@H]5CC[C@@H]([C@H]3CCC4)N5Cc3oc(=O)oc3CCCCCCCC)c12` [Example 10, 4-(((6aR,7S,10R)-2-(8-ethynyl-7-fluoro-3-hydroxynaphthalen-1-yl)-1-fluoro-13-(((2R,7aS)-2-fluorotetrahydro-1H-pyrrolizin-7a(5H)-yl)methoxy)-5,6,6a,7,8,9,10,11-octahydro-4H-3,11a,12,14,15-pentaaza-7,10-methanocyclohepta[4,5]cycloocta[1,2,3-de]naphthalen-15-yl)methyl)-5-octyl-1,3-dioxol-2-one], which “Mouse Parent AUC” value [1, 3] is on record?
Answer: 0.44 µM·h

Question: And the IC50 (GDP-loaded KRAS G12D)?
Answer: 7.8 nM

Question: What about the EC50 (GP2D (KRAS G12D) cells; 96 h) of the same compound?
Answer: 0.16 nM

Question: What does the source list for `C#Cc1c(F)ccc2cc(O)cc(-c3c(F)c4c5c(nc(OCC67CCCN6CC(F)C7)nc5c3F)N3CC5CCC(C3CCC4)N5Cc3oc(=O)oc3C)c12` [Example 28, 4-(((1S,4R,11R,15aR)-11-(8-ethynyl-7-fluoro-3-hydroxynaphthalen-1-yl)-10,12-difluoro-8-(((2R,7aS)-2-fluorotetrahydro-1H-pyrrolizin-7a(5H)-yl)methoxy)-2,3,4,5,13,14,15,15a-octahydro-1H-1,4-epiminoazepino[1′,2′:1,8]azocino[2,3,4-de]quinazolin-16-yl)methyl)-5-methyl-1,3-dioxol-2-one]?
Answer: Mouse Parent AUC [1, 2]: 0.7 µM·h; EC50 (GP2D (KRAS G12D) cells): 0.18 nM

Question: For `C#Cc1c(F)ccc2cc(O)cc(-c3nc4c5c(nc(OC[C@@]67CCCN6C[C@H](F)C7)nc5c3F)N3C[C@H]5CC[C@@H]([C@@H]3[C@@H](C)[C@H]4C)N5Cc3oc(=O)oc3C)c12` [Example 29, 4-(((7R,8S,8aS,9S,12R)-5-(8-ethynyl-7-fluoro-3-hydroxynaphthalen-1-yl)-4-fluoro-2-(((2R,7aS)-2-fluorotetrahydro-1H-pyrrolizin-7a(5H)-yl)methoxy)-7,8-dimethyl-7,8,8a,9,10,11,12,13-octahydro-1,3,6,13a,14-pentaaza-9,12-methanonaphtho[1,8-ab]heptalen-14-yl)methyl)-5-methyl-1,3-dioxol-2-one], which “Mouse Parent AUC” value [1, 3] is on record?
Answer: 0.75 µM·h

Question: What about the EC50 (GP2D (KRAS G12D) cells; 96 h) of the same compound?
Answer: 0.13 nM

Question: For `C#Cc1c(F)ccc2cc(OC(=O)C(C)C)cc(-c3nc4c5c(nc(OC[C@@]67CCCN6C[C@H](F)C7)nc5c3F)N3C[C@H]5CC[C@@H]([C@H]3CCC4)N5Cc3oc(=O)oc3C)c12` [Example 30, 5-ethynyl-6-fluoro-4-((6aR,7S,10R)-1-fluoro-13-(((2R,7aS)-2-fluorotetrahydro-1H-pyrrolizin-7a(5H)-yl)methoxy)-15-((5-methyl-2-oxo-1,3-dioxol-4-yl)methyl)-5,6,6a,7,8,9,10,11-octahydro-4H-3,11a,12,14,15-pentaaza-7,10-methanocyclohepta[4,5]cycloocta[1,2,3-de]naphthalen-2-yl)naphthalen-2-yl isobutyrate], which “Mouse Parent AUC” value [1, 3] is on record?
Answer: 0.66 µM·h

Question: And the EC50 (GP2D (KRAS G12D) cells; 96 h)?
Answer: 0.22 nM

Question: With `C#Cc1c(F)ccc2cc(N)cc(-c3nc4c5c(nc(OC[C@]6(C)CN(C)CC[C@@H]6C(F)F)nc5c3F)N3C[C@H]5CC[C@H](N5)[C@H]3CCC4)c12` [Example 76-P, 4-((6aR,7S,10R)-13-(((3S,4S)-4-(difluoromethyl)-1,3-dimethylpiperidin-3-yl)methoxy)-1-fluoro-5,6,6a,7,8,9,10,11-octahydro-4H-3,11a,12,14,15-pentaaza-7,10-methanocyclohepta[4,5]cycloocta[1,2,3-de]naphthalen-2-yl)-5-ethynyl-6-fluoronaphthalen-2-amine] as the compound, how does the IC50 (GDP-loaded KRAS G12D) read?
Answer: 0.07 nM

Question: And the EC50 (GP2D (KRAS G12D) cells; 96 h)?
Answer: 0.27 nM
